In patent US11286268B1, “EIF4E-inhibiting compounds and methods” (EFFECTOR THERAPEUTICS, INC., priority 2019, dated 2022):
Read-outs that look alike come from different tables or passages of the source.

Biological target: recombinant eIF4E (Homo sapiens (Human), UniProt P06730)
Assay: Fluorescence polarization competition assay for eIF4E binding potency
Procedure, shortened: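 Competition of test compound against 20 nM EDA-m^7GDP-ATTO-550 for 75 nM recombinant eIF4E, pre-incubated 5 min, in 20 mM Tris pH 7.5, 100 mM NaCl, 1 mM DTT, 0.02% Tween-20, 1% DMSO. Equilibrated 30 min at room temperature, dark; fluorescence polarization read. IC50 from 8-point, 3-fold dilution series.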

[1] = fluorescence polarization competition, 75 nM recombinant eIF4E, 20 nM EDA-m7GDP-ATTO-550, IC50 class, read-out: elF4E FP
[2] = inhibition of eIF4E/EDA-m7GDP-ATTO-550 binding by 50%, Table 4B calculated values, read-out: IC50
[3] = inhibition of eIF4E/EDA-m7GDP-ATTO-550 binding, calculated IC50 values, Table 4B, read-out: IC50

Chain of recombinant eIF4E (P06730 whole entry): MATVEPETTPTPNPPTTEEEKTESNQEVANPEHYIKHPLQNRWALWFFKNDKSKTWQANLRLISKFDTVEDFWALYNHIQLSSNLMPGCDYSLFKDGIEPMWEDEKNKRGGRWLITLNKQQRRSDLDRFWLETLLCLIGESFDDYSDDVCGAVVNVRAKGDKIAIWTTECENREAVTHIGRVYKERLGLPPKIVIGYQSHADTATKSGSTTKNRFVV

Structure (SMILES)	IC50 [1]	IC50 [2]	IC50 [3]
Cc1nc2cc(C#N)c(F)c(C#N)c2c(=O)n1CCOc1ccc(Cl)cc1-c1ccnc2c(C(=O)O)csc12 [compound 240]	< 0.05 µM	0.00978 µM	
Cc1nc2cc(C(F)(F)F)c(N3CCN(CC(F)F)CC3)c(C#N)c2c(=O)n1CCOc1ccc(Cl)cc1-c1cccc(C(=O)O)c1 [compound 377]	0.05 to 1 µM	0.0612 µM	
Cc1nc2cnc(N3CCC(N(CC(F)F)C4COC4)CC3)c(C#N)c2c(=O)n1CC#Cc1ccc(Cl)cc1-c1ccnc2c(C(=O)O)csc12 [compound 1553]			0.0129 µM
N#Cc1cc(C(F)(F)F)cc2nc(O)n(CCOc3ccc(Cl)cc3-c3cccc(C(=O)O)c3)c(=O)c12 [compound 186]	0.05 to 1 µM	0.344 µM	
Cc1cc(-c2cc(Cl)ccc2OCCn2c(C)nc3cnc(N4[C@@H]5CC[C@H]4CN(C)C5)c(C#N)c3c2=O)c2sc(C)c(C(=O)O)c2n1 [compound 1092]	< 0.05 µM	0.0427 µM	
Cc1nc2cc(C(F)(F)F)c(CN3CCN(C)CC3)c(C#N)c2c(=O)n1CCOc1ccc(Cl)cc1-c1ccnc2ccsc12 [compound 1256]			0.0247 µM
Cc1nc2cnc(-c3cccc4c3CCN(CC(F)F)C4)c(C#N)c2c(=O)n1CC#Cc1ccc(Cl)cc1-c1ccnc2c(C(=O)O)csc12 [compound 1558]			0.069 µM
Cc1nc2cnc(N(C)C3CCN(C4CC(F)(F)C4)CC3)c(C#N)c2c(=O)n1CC#Cc1ccc(Cl)cc1-c1ccnc2c(C(=O)NS(=O)(=O)C(C)C)csc12 [compound 1808]			0.0054 µM
Cc1nc2cc(C(F)(F)F)c(N3CCN(C)CC3)c(C#N)c2c(=O)n1CCOc1ccc(Cl)cc1-c1ccnc2c(C(=O)O)csc12 [compound 834]	< 0.05 µM	0.0316 µM	
Cc1nc2cnc(N(C)C3CCN(C4CC4)CC3)c(C#N)c2c(=O)n1CC#Cc1ccc(Cl)cc1-c1ccnc2c(C(=O)O)csc12 [compound 1171]	< 0.05 µM	0.013 µM	
COc1cc(-c2cc(Cl)ccc2OCCn2cnc3cnc(C#N)cc3c2=O)cc(C(=O)O)c1OC [compound 107]	> 1 µM	3.82 µM	
N#Cc1cc2c(=O)n(CCOc3ccc(Cl)cc3-c3cc(C(=O)O)cs3)cnc2cn1 [compound 83]	> 1 µM	2.56 µM	
N#Cc1cc(C(F)(F)F)cc2c(Cl)c(Cl)n(CCOc3ccc(Cl)cc3-c3ccnc4c(C(=O)O)csc34)c(=O)c12 [compound 46]	0.05 to 1 µM	0.0672 µM	
Cc1nc2cc(C(F)(F)F)cc(C#N)c2c(=O)n1CCOc1cc(F)c(Cl)cc1-c1ccnc2c(C(=O)O)csc12 [compound 1903]			0.0298 µM
Cc1cc(-c2cc(Cl)ccc2OCCn2c(C)nc3cc(Cl)c(N(C)C)c(C#N)c3c2=O)c2scc(C(=O)O)c2n1 [compound 696]	< 0.05 µM	0.00894 µM	
Cc1cc(-c2cc(Cl)ccc2OCCn2c(C)nc3cc(-c4cccnc4)cc(C#N)c3c2=O)c2scc(C(=O)O)c2n1 [compound 654]	< 0.05 µM	0.00312 µM	
CC(=O)c1nc2c(=O)n(CCOc3ccc(Cl)cc3-c3cc(C)nc4c(C(=O)O)csc34)c(C)nc2cc1C(F)(F)F [compound 780]	< 0.05 µM	0.0096 µM	
Cc1nc2cnc(N3CCN(CC(C)(C)C(F)(F)F)CC3)c(C#N)c2c(=O)n1CCOc1ccc(Cl)cc1-c1ccnc2c(C(=O)O)csc12 [compound 1472]			0.0289 µM
Cc1cc(-c2c(C(F)(F)F)cc3nc(C)n(CCOc4ccc(Cl)cc4-c4cc(C)nc5c(C(=O)O)csc45)c(=O)c3c2C#N)c(C)cn1 [compound 469]	< 0.05 µM	0.00225 µM	
Cc1nc2cnc(N(C)c3ccncc3)c(C#N)c2c(=O)n1CC#Cc1ccc(Cl)cc1-c1ccnc2c(C(=O)O)csc12 [compound 1569]			0.0195 µM
Cc1cc(-c2cc(Cl)ccc2OCCn2c(C)nc3cc(C(F)(F)F)c(N4CC(=O)C4)nc3c2=O)c2scc(C(=O)O)c2n1 [compound 796]	< 0.05 µM	0.00327 µM	
Cc1nc2cnc(N3CC4(CCN4C4CC4)C3)c(C#N)c2c(=O)n1CC#Cc1ccc(Cl)cc1-c1ccnc2c(C(=O)O)csc12 [compound 1525]			0.0151 µM
Cc1nc2cc(C(F)(F)F)c(N3CCN(CCC(F)(F)F)CC3)c(C#N)c2c(=O)n1CCCc1ccc(Cl)cc1-c1ccnc2c(C(=O)O)csc12 [compound 1156]	< 0.05 µM	0.0351 µM	
Cc1cc(-c2cc(Cl)ccc2OCCn2c(C)nc3cc(Cl)c(N4CCCC4=O)c(C#N)c3c2=O)c2scc(C(=O)O)c2n1 [compound 697]	< 0.05 µM	0.0102 µM	
Cc1cc(-c2cc(Cl)ccc2OCCn2c(C)nc3cnc(C(F)F)c(C#N)c3c2=O)c2scc(C(=O)O)c2n1 [compound 914]	< 0.05 µM	0.0207 µM	
Cc1cc(O)c(-c2c(C(F)(F)F)cc3nc(C)n(CCOc4ccc(Cl)cc4-c4cc(C)nc5c(C(=O)O)csc45)c(=O)c3c2C#N)cn1 [compound 1389]			1.19 µM

Structure (SMILES)	IC50 [1]	IC50 [2]	IC50 [3]
Cc1nc2cc(Cl)c(OC(F)F)c(C#N)c2c(=O)n1CCOc1ccc(Cl)cc1-c1ccnc2c(C(=O)O)csc12 [compound 546]	< 0.05 µM	0.0436 µM	
COCC(F)(F)CN1CCC(N(C)c2ncc3nc(C)n(CC#Cc4ccc(Cl)cc4-c4ccnc5c(C(=O)O)csc45)c(=O)c3c2C#N)CC1 [compound 1133]	< 0.05 µM	0.017 µM	
CCN(c1ncc2nc(C)n(CC#Cc3ccc(Cl)cc3-c3ccnc4c(C(=O)O)csc34)c(=O)c2c1C#N)C1CCN(C2CC(F)(F)C2)CC1 [compound 1184]	< 0.05 µM	0.00932 µM	
Cc1nc2c(F)c(C(F)(F)F)cc(C#N)c2c(=O)n1CCOc1ccc(Cl)cc1-c1ccnc2c(C(=O)O)csc12 [compound 294]	< 0.05 µM	0.0229 µM	
Cc1nc2cnc(N(C)[C@H]3[C@@H]4CN(CC(F)F)C[C@@H]43)c(C#N)c2c(=O)n1CC#Cc1ccc(Cl)cc1-c1ccnc2c(C(=O)O)csc12 [compound 1403]			0.00876 µM
Cc1cc(-c2cc(Cl)ccc2OCCn2c(C)nc3cc(C(F)(F)F)c(CN4CCN(C)CC4)c(C#N)c3c2=O)c2sc(C)c(C(=O)O)c2n1 [compound 417]	< 0.05 µM	0.0197 µM	
Cc1nc2cnc(N3CCN(CC(F)(F)F)CC3)c(C#N)c2c(=O)n1CCOc1ccc(Cl)cc1-c1ccnc2c(C(=O)O)csc12 [compound 1304]			0.0185 µM
Cc1nc2cc(F)cc(C#N)c2c(=O)n1CCOc1ccc(Cl)cc1-c1cccc(C(=O)O)c1 [compound 167]	0.05 to 1 µM	0.101 µM	
CC(=O)Nc1cc2c(=O)n(CCOc3ccc(Cl)cc3-c3cccc(C(=O)O)c3)cnc2cn1 [compound 131]	0.05 to 1 µM	0.6 µM	
Cc1nc2cc(C(F)(F)F)cc(C#N)c2c(=O)n1CCOc1ccc(Cl)cc1-c1cc(C(N)=O)nc2c(C(=O)O)csc12 [compound 445]	0.05 to 1 µM		
Cc1nc2cnc(OC3CCN(C4CC(F)(F)C4)CC3)c(C#N)c2c(=O)n1CCOc1ccc(Cl)cc1-c1ccnc2c(C(=O)O)csc12 [compound 1543]			0.0205 µM
Cc1cc(-c2cc(Cl)ccc2OCCn2c(C)nc3ccc(N4CCN(C)CC4)c(C#N)c3c2=O)c2sc(C)c(C(=O)O)c2n1 [compound 812]	< 0.05 µM	0.03 µM	
N#Cc1ccc2ncn(CCOc3ccc(Cl)cc3-c3cccc(C(=O)O)c3)c(=O)c2c1C#N [compound 27]	0.05 to 1 µM	0.149 µM	
Cc1nc2cncc(OCCN(C)C)c2c(=O)n1CCOc1ccc(Cl)cc1-c1ccnc2c(C(=O)O)csc12 [compound 841]	0.05 to 1 µM	> 1 µM	
Cc1cc(-c2cc(Cl)ccc2OCCn2c(C)nc3cnc(N(C)CC(F)F)c(C#N)c3c2=O)c2scc(C(=O)O)c2n1 [compound 973]	0.05 to 1 µM	0.085 µM	
Cc1cc(-c2cc(Cl)ccc2OCCn2c(C)nc3cc(C(F)(F)F)c(N4CCN(C)CC4)cc3c2=O)c2scc(C(=O)O)c2n1 [compound 427]	< 0.05 µM	0.025 µM	
Cc1nc2cnc(N3CCN([C@H]4C[C@@H](OC(F)F)C4)CC3)c(C#N)c2c(=O)n1CC#Cc1ccc(Cl)cc1-c1ccnc2c(C(=O)O)csc12 [compound 1511]			0.0232 µM
Cc1cc(-c2cc(Cl)ccc2OCCn2c(C)nc3c(C)nc(-c4ccc(C(F)(F)F)cc4)c(C#N)c3c2=O)c2scc(C(=O)O)c2n1 [compound 926]	< 0.05 µM	0.0183 µM	
Cc1nc2cnc(N3CCN(C(C)C(F)F)CC3)c(C#N)c2c(=O)n1CCOc1ccc(Cl)cc1-c1ccnc2c(C(=O)O)csc12 (stereo not shown) [compound 1312]			0.00829 µM
CCN(c1ncc2nc(C)n(CC#Cc3ccc(Cl)cc3-c3ccnc4c(C(=O)NS(=O)(=O)C5CC(F)(F)C5)csc34)c(=O)c2c1C#N)C1CCN(C2COC2)CC1 [compound 1739]			0.0333 µM
Cc1cc(-c2cc(Cl)ccc2OCCn2c(C)nc3cc(C(F)(F)F)c(CC4CCN(C)CC4)c(C#N)c3c2=O)c2scc(C(=O)O)c2n1 [compound 713]	< 0.05 µM	0.0314 µM	
Cc1nc2cnc(N(C)C3CCN(C4(C(F)F)COC4)CC3)c(C#N)c2c(=O)n1CC#Cc1ccc(Cl)cc1-c1ccnc2c(C(=O)O)csc12 [compound 1182]	< 0.05 µM	0.0136 µM	
Cc1nc2cnc(CCCN(C)CCF)c(C#N)c2c(=O)n1CCOc1ccc(Cl)cc1-c1ccnc2c(C(=O)O)csc12 [compound 1345]			0.0345 µM
CCN(c1ncc2nc(C)n(CC#Cc3ccc(Cl)cc3-c3ccnc4c(C(=O)NS(=O)(=O)c5ccncc5)csc34)c(=O)c2c1C#N)C1CCN([C@H]2C[C@@H](OC(F)(F)F)C2)CC1 [compound 1779]			0.0351 µM
Cc1nc2cc(C(F)(F)F)c(N3CCN(C)C(CO)C3)c(C#N)c2c(=O)n1CCOc1ccc(Cl)cc1-c1ccnc2c(C(=O)O)csc12 (stereo not shown) [compound 1261]			0.0336 µM
Cc1cc(-c2cc(Cl)ccc2OCCn2c(C)nc3c(F)cc(C(F)F)c(C#N)c3c2=O)c2scc(C(=O)O)c2n1 [compound 587]	< 0.05 µM	0.0255 µM	
